ChEMBL document CHEMBL1781974, “Novel 4,4-disubstituted piperidine-based C-C chemokine receptor-5 inhibitors with high potency against human immunodeficiency virus-1 and an improved human ether-a-go-go related gene (hERG) profile” (J Med Chem, 2011)

Assays:
[1] = Dissociation constant, pKa of the compound; assay type: physicochemical
[2] = in vivo; conditions: rat, iv
[3] = AUC in male dog at 250 mg/kg/day, iv; assay type: ADME, organism-based, Canis lupus familiaris; design: route intravenous; conditions: plasma
[4] = system: Cynomolgus monkey; conditions: in vivo, po, 10 mg/kg
[5] = AUC in female dog at 250 mg/kg/day, iv; assay type: ADME, organism-based, Canis lupus familiaris; design: route intravenous; conditions: plasma
[6] = AUC in female rat at 2000 mg/kg/day, iv; assay type: ADME, organism-based; design: route intravenous; conditions: plasma
[7] = AUC in male rat at 2000 mg/kg/day, iv; assay type: ADME, organism-based; design: route intravenous; conditions: plasma

Structure (SMILES) | clearance [2] [mL/min/kg] | further results
Cc1nc2ccccc2n1C1CC2CCC(C1)N2CC(=O)C1(c2ccccc2)CCN(C(=O)C(C)(C)C)CC1 (centres undefined) | – | pKa [1]: 6.37
Cc1nc2ccccc2n1C1CC2CCC(C1)N2CCC1(c2cccc(F)c2)CCN(C(=O)c2ccc(Cl)c(S(N)(=O)=O)c2)CC1 (centres undefined) | 26.8 | –
Cc1nc2ccccc2n1C1CC2CCC(C1)N2CCC1(c2ccccc2)CCN(C(=O)C(C)(C)c2nnn[nH]2)CC1 (centres undefined) | 156 | –
CNS(=O)(=O)c1cc(C(=O)N2CCC(CCN3C4CCC3CC(n3c(C)nc5ccccc53)C4)(c3cccc(F)c3)CC2)c(Cl)cc1F (centres undefined) | – | AUC [3]: 17200 ng·h/mL; AUC/dose [4]: 38 ng·h/mL; AUC [5]: 34900 ng·h/mL; AUC [6]: 160000 ng·h/mL; AUC [7]: 77000 ng·h/mL
Cc1nc2ccccc2n1C1CC2CCC(C1)N2CCC1(c2cccc(F)c2)CCN(C(=O)C(C)(C)C)CC1 (centres undefined) | 24 | –
Cc1nc2ccccc2n1C1CC2CCC(C1)N2CCC1(c2cccc(F)c2)CCN(C(=O)C2(C(=O)O)CCC2)CC1 (centres undefined) | 136 | –
Cc1nc2ccccc2n1C1CC2CCC(C1)N2CCC1(c2ccccc2)CCN(C(=O)c2ccc3c(c2)CC(=O)NS3(=O)=O)CC1 (centres undefined) | 26 | –
Cc1nc2ccccc2n1C1CC2CCC(C1)N2CCC1(c2cccc(F)c2)CCN(C(=O)c2cc(NS(C)(=O)=O)c(F)cc2Cl)CC1 (centres undefined) | – | AUC/dose [4]: 59 ng·h/mL
Cc1nc2ccccc2n1C1CC2CCC(C1)N2CCC1(c2ccccc2)CCN(C(=O)c2ccccc2C(=O)O)CC1 (centres undefined) | 114 | –
Cc1nc2ccccc2n1C1CC2CCC(C1)N2CCC1(c2ccccc2)CCN(C(=O)c2cccc(C(=O)O)c2)CC1 (centres undefined) | 62 | –
Cc1nc2ccccc2n1C1CC2CCC(C1)N2CCC1(c2cccc(F)c2)CCN(C(=O)c2c(F)ccc(NS(C)(=O)=O)c2F)CC1 (centres undefined) | – | AUC/dose [4]: 19.9 ng·h/mL
Cc1nc2ccccc2n1C1CC2CCC(C1)N2CCC1(c2ccccc2)CCN(C(=O)C(C)(C)C(=O)NS(C)(=O)=O)CC1 (centres undefined) | 53 | –
Cc1nc2ccccc2n1[C@H]1C[C@H]2CC[C@@H](C1)N2CCC1(c2ccccc2)CCN(C(=O)C(C)(C)C)CC1 | – | pKa [1]: 10.7
Cc1nc2ccccc2n1C1CC2CCC(C1)N2CCC1(c2ccccc2)CCN(C(=O)c2ccc(Cl)c(S(N)(=O)=O)c2)CC1 (centres undefined) | 31 | –
Cc1cccc(C2(CCN3C4CCC3CC(n3c(C)nc5ccccc53)C4)CCN(C(=O)c3ccc(Cl)c(S(N)(=O)=O)c3)CC2)c1 (centres undefined) | 28.3 | –
